Read-outs that look alike come from different tables or passages of the source.
Experiments:
[1] = target: T1, angiotensin II type 1 receptor (Oryctolagus cuniculus, UniProt P34976); assay: Angiotensin II antagonistic activity in isolated rabbit blood vessels; details: angiotensin II (10 nM)-induced contraction of rabbit thoracic aorta ring
T1 construct: By using a specimen of isolated rabbit blood vessels; from tissue; host or cells: rabbit thoracic aorta ring (New Zealand White, male)
T1 sequence (P34976 1-359): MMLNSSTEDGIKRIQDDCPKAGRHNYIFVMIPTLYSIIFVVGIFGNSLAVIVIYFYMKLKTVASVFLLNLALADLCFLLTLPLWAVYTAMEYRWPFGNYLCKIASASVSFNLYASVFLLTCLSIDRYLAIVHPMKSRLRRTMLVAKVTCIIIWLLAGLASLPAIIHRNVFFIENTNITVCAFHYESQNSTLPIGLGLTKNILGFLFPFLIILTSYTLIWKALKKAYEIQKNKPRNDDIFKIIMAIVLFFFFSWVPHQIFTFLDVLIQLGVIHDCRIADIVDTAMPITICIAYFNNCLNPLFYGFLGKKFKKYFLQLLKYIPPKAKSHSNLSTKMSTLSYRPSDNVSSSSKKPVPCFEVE
Procedure: By using a specimen of isolated rabbit blood vessels, antagonistic activity of the compounds of the invention against angiotensin II type 1 receptor was estimated from a dose-response curve of angiotensin II-induced blood vessel contraction.
During the measurement, the inside temperature of the magnus bath was maintained at 37° C. and the bath was continuously ventilated with a sufficient amount of mixed gas (95% O2 and 5% CO2). The angiotensin II-induced contraction was converted into a relative value (%) that is based on the angiotensin II (10 nM)-induced contraction in the absence of the compounds of each example. From the concentration-response curve obtained therefrom, 50% inhibition concentration (IC50 value) was calculated by using SAS Preclinical Package Ver5.0 (trade name, manufactured by SAS institute Japan Co., Tokyo, Japan), which is a statistical analysis program.

human PPARγ2 = target: T2, human PPARγ2 (Homo sapiens, UniProt P37231); assay: PPARγ activation activity, Gal4 chimera luciferase transfection assay using COS7 cells; type: cell-based; details: for EC50: Gal4-human PPARγ2 LBD chimera, luciferase reporter, 16 hours; for Emax: COS-7, 16 h, maximum activity strength relative to the maximum activity of rosiglitazone, read-out: % MAX vs Rosiglitazone; for maximum activity compared with telmisartan: maximum PPARγ activity, telmisartan 30 to 50% of rosiglitazone under the same condition
T2 construct: the amino acids 182 to 505 of human PPARγ2; expressed in transfected cells; host or cells: COS7 cells
Procedure: The agonistic activity of the compounds of the invention on PPARγ was measured based on the transfection assay using COS7 cells (DS Pharma Biomedical Co., Ltd., Osaka, Japan), which are the cell line derived from the kidney of the African green monkey. COS7 cells were cultured under 5% CO2 concentration, and DMEM medium containing 10% fetal bovine serum, glutamic acid, and antibiotics was used as a medium.
As an expression vector, a chimera in which DNA binding domain of Gal4, which is a yeast transcription factor, and ligand binding domain of human PPAR^γ2 are fused, i.e., a fused product between the amino acids 1 to 147 of Gal4 transcription factor and the amino acids 182 to 505 of human PPARγ2, was used. Furthermore, as a reporter vector, a firefly luciferase containing five copies of Gal4 recognition sequence in the promoter region was used. Plasmid transfection to the cells was performed according to a method which uses jetPEI (trade name, manufactured by Funakoshi Co., Ltd., Tokyo, Japan). Furthermore, β-galactosidase expression vector was employed as an internal standard.
After the transfection of the cells, the medium was replaced with a DMEM medium (containing 1% serum) added with the compound, and the cells were further cultured for 16 hours. After that, the luciferase activity and β-galactosidase activity in the cell lysis solution were measured.
For the present test, dimethyl sulfoxide (DMSO) was used for dissolution and dilution of the test compounds, and during the cell treatment, the DMSO concentration in DMEM medium (containing 1% serum) was adjusted to 0.1%. As a positive compound, rosiglitazone (trade name, manufactured by ALEXIS Corporation, Switzerland) was used. […] The 50% effective concentration of the test compound (EC50, 50% effect concentration) was calculated by using SAS Preclinical Package Ver5.0 (trade name, manufactured by SAS institute Japan Co., Tokyo, Japan), which is a statistical analysis program.

T2 sequence (P37231 182-505): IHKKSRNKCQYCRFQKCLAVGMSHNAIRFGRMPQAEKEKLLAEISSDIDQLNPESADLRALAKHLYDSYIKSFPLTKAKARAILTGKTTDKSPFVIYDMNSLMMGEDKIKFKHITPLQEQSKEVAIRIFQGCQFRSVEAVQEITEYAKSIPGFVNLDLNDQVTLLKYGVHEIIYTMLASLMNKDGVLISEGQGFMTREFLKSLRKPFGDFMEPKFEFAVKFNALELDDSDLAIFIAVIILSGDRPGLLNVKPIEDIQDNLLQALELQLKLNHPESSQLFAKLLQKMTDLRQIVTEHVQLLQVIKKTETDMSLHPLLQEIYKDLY
T2 sequence (P04386 1-147 partner limits assumed): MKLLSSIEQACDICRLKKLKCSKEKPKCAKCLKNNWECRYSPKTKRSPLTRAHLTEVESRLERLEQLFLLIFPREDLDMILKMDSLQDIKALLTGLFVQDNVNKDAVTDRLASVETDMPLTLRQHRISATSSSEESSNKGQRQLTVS

Compound	IC50 [1] [nM]	EC50 (human PPARγ2; COS7 cells, read-out: EC50) [nM]	Emax (human PPARγ2; COS7 cells) [%]	maximum activity compared with telmisartan (human PPARγ2)	EC50 (human PPARγ2; EC50, COS7 cells) [nM]
CCCCOc1cnc(-n2c(C)nc(CCCC)c(Cc3ccc(-c4ccccc4-c4nnn[nH]4)cc3)c2=O)nc1 [Example 24, 5-{[2′-(1H-tetrazol-5-yl)biphenyl-4-yl]methyl}-3-(5-butoxypyrimidin-2-yl)-6-butyl-2-methylpyrimidin-4 (3H)-one]	141	860			
CCCCc1nc(C)n(-c2ccnn2C)c(=O)c1Cc1ccc(-c2ccccc2-c2nnn[nH]2)cc1 [Example 64, 5-{[2′-(1H-tetrazol-5-yl)biphenyl-4-yl]methyl}-6-butyl-2-methyl-3-(1-methyl-1H-pyrazol-5-yl)pyrimidin-4 (3H)-one]	652	3300			
CCCCc1nc(C)n(-c2cc(C(F)(F)F)ccn2)c(=O)c1Cc1ccc(-c2ccccc2-c2nnn[nH]2)cc1 [Example 10, 5-{[2′-(1H-tetrazol-5-yl)biphenyl-4-yl]methyl}-6-butyl-2-methyl-3-[4-(trifluoromethyl)pyridin-2-yl]pyrimidin-4(3H)-one]	181	3890			
CCCCc1nc(C)n(-c2cccc(Br)n2)c(=O)c1Cc1ccc(-c2ccccc2-c2nnn[nH]2)cc1 [Example 8, 5-{[2′-(1H-tetrazol-5-yl)biphenyl-4-yl]methyl}-3-(6-bromopyridin-2-yl)-6-butyl-2-methylpyrimidin-4(3H)-one]	395	880	27.7		
CCCCc1nc(C)n(-c2ncccc2F)c(=O)c1Cc1ccc(-c2ccccc2-c2nnn[nH]2)cc1 [Example 4, 5-{[2′-(1H-tetrazol-5-yl)biphenyl-4-yl]methyl}-6-butyl-3-(3-fluoropyridin-2-yl)-2-methylpyrimidin-4(3H)-one]	60	1440			
CCCCc1nc(C)n(-c2ncc(OCCC)cn2)c(=O)c1Cc1ccc(-c2ccccc2-c2nnn[nH]2)cc1 [Example 22, 5-{[2′-(1H-tetrazol-5-yl)biphenyl-4-yl]methyl}-6-butyl-2-methyl-3-(5-propoxypyrimidin-2-yl)pyrimidin-4 (3H)-one]	155	590	22.8		
CCCCc1nc(C)n(-c2ccc(F)cn2)c(=O)c1Cc1ccc(-c2ccccc2-c2nnn[nH]2)cc1 [Example 5, 5-{[2′-(1H-tetrazol-5-yl)biphenyl-4-yl]methyl}-6-butyl-3-(5-fluoropyridin-2-yl)-2-methylpyrimidin-4(3H)-one]	102	3660	27.6		
CCCCc1nc(C)n(-c2ccc(Cl)cn2)c(=O)c1Cc1ccc(-c2ccccc2-c2nnn[nH]2)cc1 [Example 7, 5-{[2′-(1H-tetrazol-5-yl)biphenyl-4-yl]methyl}-6-butyl-3-(5-chloropyridin-2-yl)-2-methylpyrimidin-4(3H)-one]	431	1520	54.6	the same or greater than that of telmisartan	
CCCc1nc2c(C)cc(-c3nc4ccccc4n3C)cc2n1Cc1ccc(-c2ccccc2C(=O)O)cc1 [telmisartan, reference compound]			30 to 50		1000 to 5000
CCCCc1nc(C)n(-c2ncc(OCc3nc(-c4ccc(Br)o4)oc3C)cn2)c(=O)c1Cc1ccc(-c2ccccc2-c2nnn[nH]2)cc1 [Example 32, 5-{[2′-(1H-tetrazol-5-yl)biphenyl-4-yl]methyl}-3-{5-{[2-(5-bromofuran-2-yl)-5-methyloxazol-4-yl]methoxy}pyrimidin-2-yl}-6-butyl-2-methylpyrimidin-4 (3H)-one]	428				
CCCCc1nc(C)n(-c2nc3ccccc3s2)c(=O)c1Cc1ccc(-c2ccccc2-c2nnn[nH]2)cc1 [Example 70, 5-{[2′-(1H-tetrazol-5-yl)biphenyl-4-yl]methyl}-3-(benzothiazol-2-v1)-6-butyl-2-methylpyrimidin-4 (3H)-one]		690	39.7	the same or greater than that of telmisartan	
CCCCc1nc(C)n(-c2ccc([N+](=O)[O-])cn2)c(=O)c1Cc1ccc(-c2ccccc2-c2nnn[nH]2)cc1 [Example 14, 5-{[2′-(1H-tetrazol-5-yl)biphenyl-4-yl]methyl}-6-butyl-2-methyl-3-(5-nitropyridin-2-yl)pyrimidin-4 (3H)-one]	546				

Continued, in another order:

IC50 [1] [nM]	EC50 (human PPARγ2; COS7 cells, read-out: EC50) [nM]	Emax (human PPARγ2; COS7 cells) [%]	Compound	maximum activity compared with telmisartan (human PPARγ2)	EC50 (human PPARγ2; EC50, COS7 cells) [nM]
49	1230	28.9	CCCCc1nc(C)n(-c2ncc(OC3CCCCC3)cn2)c(=O)c1Cc1ccc(-c2ccccc2-c2nnn[nH]2)cc1 [Example 28, 5-{[2′-(1H-tetrazol-5-yl)biphenyl-4-yl]methyl}-6-butyl-3-[5-(cyclohexyloxy)pyrimidin-2-yl]-2-methylpyrimidin-4 (3H)-one]		
22	890		CCCCc1nc(C)n(-c2ncc(OC(C)C)cn2)c(=O)c1Cc1ccc(-c2ccccc2-c2nnn[nH]2)cc1 [Example 23, 5-{[2′-(1H-tetrazol-5-yl)biphenyl-4-yl]methyl}-6-butyl-3-(5-isopropoxypyrimidin-2-yl)-2-methylpyrimidin-4 (3H)-one]		
3.6			CCCCc1nc(C)n(-c2ncc(OCCCNS(C)(=O)=O)cn2)c(=O)c1Cc1ccc(-c2ccccc2-c2nnn[nH]2)cc1 [Example 57, N-{3-{2-{5-{[2′-(1H-tetrazol-5-yl)biphenyl-4-yl]methyl}-4-butyl-2-methyl-6-oxopyrimidin-1(6H)-yl}pyrimidin-5-yloxy}propyl}methane sulfonamide]		
8.1			CCCCc1nc(C)n(-c2cnccn2)c(=O)c1Cc1ccc(-c2ccccc2-c2nnn[nH]2)cc1 [Example 60, 5-{[2′-(1H-tetrazol-5-yl)biphenyl-4-yl]methyl}-6-butyl-2-methyl-3-(pyrazin-2-yl)pyrimidin-4 (3H)-one]		
25			CCCCc1nc(C)n(-c2ncc(OCCCCC(=O)NCC)cn2)c(=O)c1Cc1ccc(-c2ccccc2-c2nnn[nH]2)cc1 [Example 54, 5-{2-{5-{[2′-(1H-tetrazol-5-yl)biphenyl-4-yl]methyl}-4-butyl-2-methyl-6-oxopyrimidin-1(6H)-yl}pyrimidin-5-yloxy}-N-ethylpentanamide]		
8.5			CCCCc1nc(C)n(-c2ncc(OCCCCC(N)=O)cn2)c(=O)c1Cc1ccc(-c2ccccc2-c2nnn[nH]2)cc1 [Example 53, 5-{2-{5-{[2′-(1H-tetrazol-5-yl)biphenyl-4-yl]methyl}-4-butyl-2-methyl-6-oxopyrimidin-1(6H)-yl}pyrimidin-5-yloxy}pentanamide]		
14			CCCCc1nc(C)n(-c2ncccc2C(F)(F)F)c(=O)c1Cc1ccc(-c2ccccc2-c2nnn[nH]2)cc1 [Example 9, 5-{[2′-(1H-tetrazol-5-yl)biphenyl-4-yl]methyl}-6-butyl-2-methyl-3-[3-(trifluoromethyl)pyridin-2-yl]pyrimidin-4(3H)-one]		
5.5			CCCCc1nc(C)n(-c2ncc(OC(Cc3ccccc3)C(=O)O)cn2)c(=O)c1Cc1ccc(-c2ccccc2-c2nnn[nH]2)cc1 (stereo not shown) [Example 43, 2-{2-{5-{[2′-(1H-tetrazol-5-yl)biphenyl-4-yl]methyl}-4-butyl-2-methyl-6-oxopyrimidin-1(6H)-yl}pyrimidin-5-yloxy}-3-phenylpropionic acid]		
5.9			CCCCc1nc(C)n(-c2ncc(OCC(=O)NCC)cn2)c(=O)c1Cc1ccc(-c2ccccc2-c2nnn[nH]2)cc1 [Example 40, 2-{2-{5-{[2′-(1H-tetrazol-5-yl)biphenyl-4-yl]methyl}-4-butyl-2-methyl-6-oxopyrimidin-1(6H)-yl}pyrimidin-5-yloxy}-N-ethylacetamide]		

Source: US8664226B2, “Compound having 3-heteroarylpyrimidin-4-(3H)-one structure and pharmaceutical preparation containing same” (Kowa Company, Ltd., priority 2009, dated 2014)
